From paper PMC8279416, “Structural Fine-Tuning of Desmuramylpeptide NOD2 Agonists Defines Their In Vivo Adjuvant Activity” (Journal of Medicinal Chemistry, 2021)
“And” between values parts separate entries of the source, which are not always exact repeats. Identical values can stand only once.

Assays:
NOD2 = molecular target: T1, NOD2 (Homo sapiens, UniProt Q9HC29); assay: HEK-Blue NOD2 cell line reporter assay (NF-κB-inducible SEAP); assay type: cell-based; settings: HEK-Blue NOD2 cells, 18 h, mean ± SEM; for NOD2 activity at 2 μM (fold increase): NF-κB transcriptional (SEAP) activity relative to 0.1% DMSO; for EC50: 7 or 8 concentrations 1 nM to 20 μM
T1 construct: host or cells: HEK-Blue NOD2 cells (HEK293-derived)
Method: To determine the NOD2 agonistic potential of the synthesized desmuramylpeptides at the cellular level, we used the validated and commercially available HEK-Blue NOD2 cell line reporter assay. HEK-Blue NOD2 cells were first treated for 18 h with MDP, 1, or the novel desmuramylpeptides at 2 μM. The NF-κB transcriptional activity measured was normalized to that of the vehicle treated (0.1% DMSO) control HEK-Blue NOD2 cells.
HEK-Blue NOD2 and NOD1 cell line reporter assays are derived from HEK293 cells by cotransfection of the hNOD2 or hNOD1 genes, respectively, and an NF-κB-inducible secreted embryonic alkaline phosphatase (SEAP) reporter gene. Following activation of NOD2 or NOD1, the resulting NF-κB induces production of SEAP, the levels of which can be quantified colorimetrically. […] After 18 h of incubation (37 °C, 5% CO2), secreted embryonic alkaline phosphatase (SEAP) activity was determined spectrophotometrically as absorbance at 630 nm (BioTek Synergy microplate reader; Winooski, VT, U.S.A.). EC50 values were calculated using Prism software (version 9; GraphPad Software, CA, U.S.A.). For determination of specificity, HEK-Blue NOD2 cells (2.5 × 10^5 cells/mL) were first pretreated for 1 h with a 10 μM NOD2 antagonist, before the addition of the compounds (2 μM), with incubation for 18 h. SEAP activity in the supernatants was determined as above. The experiments were run in duplicate and repeated as at least two independent biological replicates.

NIH/OlaHsd mice [1] = assay: In vivo ovalbumin-specific antibody response, second experiment (neutral, anionic, mannosylated liposomes); parameters: species or system mouse; settings: for Ovalbumin-specific IgG response (in words): 0.15 μmol adjuvant per dose; for Log10 (anti-OVA IgG1/anti-OVA IgG2a): second in vivo experiment, 0.15 μmol adjuvant, one week after second booster, mean ± SEM of 5 mice
Method: To determine whether the adjuvanticity of 75 can be modulated through changes to the liposomal formulation, a second in vivo experiment was designed in which the adjuvant activities of three different liposomal compositions were compared. Neutral liposomes were prepared from egg phosphatidylcholine and cholesterol.
(§1) Multilamellar liposomes were prepared by the modified thin lipid film method as described previously.[130],[131] For the preparation of neutral liposomes, a 7:5 molar ratio of egg-phosphatidylcholine and cholesterol was used. For the preparation of negatively charged liposomes, a 7:5:1 molar ratio of egg-phosphatidylcholine, cholesterol, and dicetylphosphate was used, while a 7:5:0.5 molar ratio of egg-phosphatidylcholine, cholesterol, and Man-PEG-Pam was used in the preparation of mannosylated liposomes. Lipids (total lipid concentration, 4 mg/mL) were dissolved in chloroform/methanol (2:1). A methanol or chloroform/methanol solution of MDP or the desmuramylpeptides was added to the lipid solution for a final concentration of 2 mM and 1.5 mM for the first (Figure 10) and second (Figure 11) experiments, respectively. After rotary evaporation of the solvent, the remaining lipid film was dried in vacuum for 1 h and then dispersed by gentle handshaking in an ovalbumin solution in saline (0.0667 and 0.1 mg/mL for the first and second experiments, respectively). This was then left overnight at 4 °C to swell and stabilize. Liposome size was reduced by sonification. Nonentrapped material was not separated from liposomes, and the complete liposome suspension was used for immunizations.
(§2) For the first experiment (Figure 10), sex-matched NIH/OlaHsd mice (five per group) were immunized subcutaneously in the tail base and boosted one time after 21 days. The injection volume in all experimental groups was 0.15 mL per mouse, which corresponds to 10 μg of OVA, […], and 0.30 μmol of MDP and desmuramylpeptides. For the second experiment (Figure 11), sex-matched NIH/OlaHsd mice (five per group) were immunized and boosted two times subcutaneously into the tail base at 21-day intervals. The injection volume in all experimental groups was 0.1 mL per mouse, which corresponds to 10 μg of OVA, 400 μg of lipids, and 0.15 μmol of MDP and 75. The mice were anesthetized with ip application of ketamine/xylazine (25 mg/kg each) prior to blood collection from the axillary plexus on the seventh day after the last booster dose. Individual serum from each animal was decomplemented at 56 °C for 30 min and then stored at −20 °C until tested.
(§3) ELISA assays were performed as detailed previously.[46] Briefly, high-binding ELISA plates (Costar, U.S.A.) were coated with a 15 μg/mL solution of ovalbumin in carbonate buffer, pH 9.6, and incubated overnight at room temperature. Nonspecific antibody binding was blocked with 0.5% w/v bovine serum albumin in PBS-T (0.05% (v/v) Tween 20 in phosphate-buffered saline) for 2 h at 37 °C. After washing, five serial dilutions of mice sera and standard preparations were added in duplicate. Plates were incubated overnight at room temperature, washed, and analyzed for ovalbumin-specific IgG levels by incubation with HRP-conjugated goat anti-mouse IgG (2 h at 37 °C) and then, after washing, with 0.6 mg/mL o-phenylenediaminedihydrochloride solution in citrate-phosphate buffer, pH 5.0, with 0.5 μL of 30% H2O2 per milliliter for 30 min at room temperature in the dark. The enzymatic reaction was stopped with 12.5% H2SO4, and absorbance at 492 nm was measured using a microplate reader (Thermo Fisher Scientific, Waltham, MA, U.S.A.). For the determination of ovalbumin-specific IgG1 and IgG2a, the plates were incubated with biotin-conjugated rat anti-mouse IgG1 or IgG2a (2 h at 37 °C) and subsequently with streptavidin–peroxidase for another 2 h at 37 °C. After washing, the substrate solution was added and incubated for 30 min at room temperature in the dark, as described above. […]

NIH/OlaHsd mice [2] = assay: In vivo ovalbumin-specific antibody response, first experiment (neutral liposomes); parameters: species or system mouse; settings: for Log10 (anti-OVA IgG1/anti-OVA IgG2a): first in vivo experiment, one week after the booster dose, mean ± SEM of 5 mice; for Ovalbumin-specific IgG1 response (in words) / Ovalbumin-specific IgG2a response (in words) / Adjuvant activity: ovalbumin-specific IgG (in words): neutral liposomes, 0.30 μmol adjuvant per dose, 1 week after booster; for Adjuvant activity: ovalbumin-specific IgG (in words): s.c.
Method: To determine whether enhanced antigen presentation in vitro is correlated to in vivo adjuvant activities, an immunization study was performed in a murine model of adjuvanticity. Specifically, the selected desmuramylpeptides were investigated for induction of systemic immune responses against the model antigen ovalbumin. Seven groups of NIH/OlaHsd mice were immunized with ovalbumin-containing neutral liposomes, either alone or with additional adjuvants of MDP or the desmuramylpeptides 1, 68, 74, 75, or 81. After immunization and one booster dose, the mice sera were collected and assayed for ovalbumin-specific IgG antibodies (Figure 10).
as §1, §2
as §3, with “U.S.A.).” for “U.S.A.). For the determination of ovalbumin-specific IgG1 and IgG2a, the plates were incubated with biotin-conjugated rat anti-mouse IgG1 or IgG2a (2 h at 37 °C) and subsequently with streptavidin–peroxidase for another 2 h at 37 °C. After washing, the substrate solution was added and incubated for 30 min at room temperature in the dark, as described above.”

human PBMCs = assay: Cytokine release from peripheral blood mononuclear cells (cytometric bead array); assay type: cell-based; settings: 2 μM, 18 h, without LPS
Method: The immunostimulatory effects of the selected desmuramylpeptides were evaluated using human primary peripheral blood mononuclear cells (PBMCs). This heterogeneous mixture of immune cells allowed the study of the effects of these NOD2 agonists in a physiologically relevant system, where other NOD2-interacting and downstream signaling proteins were present. The effects of desmuramylpeptides were first determined for the secreted cytokine profile using a cytometric bead array cytokine kit. Moreover, considering that activation of NOD2 is also an important amplification signal for Toll-like receptor (TLR)-induced inflammatory responses,[79]−[81] we also examined the effects on cytokine secretion of the combination of desmuramylpeptides with LPS, a well-known TLR4 agonist.
In line with previous studies, the effects of MDP and the desmuramylpeptides were most pronounced for the induction of the chemokine IL-8.[82]
Peripheral blood mononuclear cells were seeded (1 × 10^6 cells/mL) in 48-well plates in 500 μL of growth medium and treated with the compounds (2 μM) or with the corresponding vehicle (0.1% DMSO) in the absence and presence of LPS (10 ng/mL). Cell-free supernatants were collected after 18 h of incubation (37 °C, 5% CO2) and stored at −80 °C until tested. Cytokine production was determined with the BD Cytometric Bead Array Human Inflammatory Cytokines Kit (contents: IL-8, IL-1β, IL-6, IL-10, TNF, IL-12p70; BD Bioscience) on an Attune NxT flow cytometer (Thermo Fisher Scientific, Waltham, MA, U.S.A.). Standard curves were generated using recombinant cytokines contained in the kit. The data were analyzed using the FlowJo (Tree Star, Inc., Ashland, OR, U.S.A.) and Prism (GraphPad, San Diego, CA, U.S.A.) software. The experiments were repeated as four independent biological replicates. Statistical significance was determined by repeated measures one-way ANOVA followed with Dunnett’s multiple comparisons test.

[3] = parameters: method as in PMID 29543461; settings: earlier work of the group; cited from earlier work

T1 sequence (Q9HC29 whole entry): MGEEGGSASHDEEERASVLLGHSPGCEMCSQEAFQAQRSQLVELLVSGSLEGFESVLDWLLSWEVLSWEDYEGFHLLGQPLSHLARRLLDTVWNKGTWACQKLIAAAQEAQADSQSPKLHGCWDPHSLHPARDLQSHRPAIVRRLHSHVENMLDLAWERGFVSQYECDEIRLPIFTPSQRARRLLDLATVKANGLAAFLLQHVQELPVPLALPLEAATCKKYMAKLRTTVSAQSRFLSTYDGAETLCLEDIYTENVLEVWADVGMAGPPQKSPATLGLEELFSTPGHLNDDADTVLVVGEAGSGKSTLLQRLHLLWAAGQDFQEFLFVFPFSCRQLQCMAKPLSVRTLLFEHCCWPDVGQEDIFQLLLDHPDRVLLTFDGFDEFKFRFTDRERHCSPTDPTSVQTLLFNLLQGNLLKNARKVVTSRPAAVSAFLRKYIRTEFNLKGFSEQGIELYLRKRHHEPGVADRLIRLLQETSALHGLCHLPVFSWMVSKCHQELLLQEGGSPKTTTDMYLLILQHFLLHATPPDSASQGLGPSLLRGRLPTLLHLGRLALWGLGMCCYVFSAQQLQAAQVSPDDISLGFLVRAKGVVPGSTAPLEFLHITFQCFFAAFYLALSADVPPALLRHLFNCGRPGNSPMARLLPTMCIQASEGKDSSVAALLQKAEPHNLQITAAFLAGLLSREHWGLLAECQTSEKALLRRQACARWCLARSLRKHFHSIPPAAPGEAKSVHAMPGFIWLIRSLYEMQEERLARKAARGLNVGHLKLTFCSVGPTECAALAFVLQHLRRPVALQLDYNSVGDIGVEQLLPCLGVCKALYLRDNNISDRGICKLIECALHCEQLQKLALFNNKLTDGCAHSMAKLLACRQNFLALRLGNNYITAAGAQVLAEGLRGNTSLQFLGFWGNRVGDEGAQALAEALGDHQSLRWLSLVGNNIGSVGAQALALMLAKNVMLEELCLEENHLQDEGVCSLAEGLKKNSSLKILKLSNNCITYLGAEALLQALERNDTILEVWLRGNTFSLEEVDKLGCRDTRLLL

| NOD2 activity at 2 μM (fold increase) (NOD2) | EC50 (NOD2) | SMILES | Log10 (anti-OVA IgG1/anti-OVA IgG2a) (NIH/OlaHsd mice [2]) | Ovalbumin-specific IgG1 response (in words) (NIH/OlaHsd mice [2]) | Ovalbumin-specific IgG2a response (in words) (NIH/OlaHsd mice [2]) | Adjuvant activity: ovalbumin-specific IgG (in words) (NIH/OlaHsd mice [2]) | Induction of cytokines IL-1β, IL-6, IL-8 and TNF-α, compound alone (human PBMCs) | further results |
| --- | --- | --- | --- | --- | --- | --- | --- | --- |
| 3.17 ± 0.03 fold increase | 30 ± 5 nM | CCCCCCCCCCCC(=O)Oc1ccc(/C=C/C(=O)NCC(=O)N[C@H](C(=O)N[C@H](CCC(=O)OCC)C(=O)OCC)C(C)C)cc1OC [Compound 74, Diethyl ((E)-3-(4-(Dodecanoyloxy)-3-methoxyphenyl)acryloyl)glycyl-L-valyl-D-glutamate] | 2.90 ± 0.39 | – | slight suppression of the IgG2a response | – | induced small increases in the levels of all four of these cytokines | – |
| 1.32 ± 0.02 fold increase | – | CONC(=O)CC[C@@H](NC(=O)[C@@H](NC(=O)CNC(=O)/C=C/c1ccc(O)c(OC)c1)C(C)C)C(=O)OC(C)(C)C [Compound 60, tert-Butyl N^2-((E)-3-(4-Hydroxy-3-methoxyphenyl)acryloyl)glycyl-L-valyl-N^5-methoxy-D-glutaminate] | – | – | – | – | – | – |

Continued, compound first:

| SMILES | NOD2 activity at 2 μM (fold increase) (NOD2) | EC50 (NOD2) | Log10 (anti-OVA IgG1/anti-OVA IgG2a) (NIH/OlaHsd mice [2]) | Ovalbumin-specific IgG1 response (in words) (NIH/OlaHsd mice [2]) | Ovalbumin-specific IgG2a response (in words) (NIH/OlaHsd mice [2]) | Adjuvant activity: ovalbumin-specific IgG (in words) (NIH/OlaHsd mice [2]) | Induction of cytokines IL-1β, IL-6, IL-8 and TNF-α, compound alone (human PBMCs) | further results |
| --- | --- | --- | --- | --- | --- | --- | --- | --- |
| CC(=O)N[C@H]1C(O)O[C@H](CO)[C@@H](O)[C@@H]1O[C@H](C)C(=O)N[C@@H](C)C(=O)N[C@H](CCC(=O)O)C(N)=O (stereo partly shown) [MDP, muramyl dipeptide, reference compound] | 2.83 fold increase and 2.83 ± 0.16 fold increase | 148 ± 26 nM | 2.43 ± 0.25 | significant increases in IgG1 generation | only marginal increases in IgG2a | moderately enhanced | – | Ovalbumin-specific IgG2a response (in words) (NIH/OlaHsd mice [1]; all liposomal compositions, compared to liposomes without adjuvant): remained unchanged; Ovalbumin-specific IgG response (in words) (NIH/OlaHsd mice [1]; mannosylated liposomes): strongest immunogenicity; Ovalbumin-specific IgG response (in words) (NIH/OlaHsd mice [1]; negatively charged liposomes): stronger IgG response; Ovalbumin-specific IgG response (in words) (NIH/OlaHsd mice [1]; neutral liposomes): weakest adjuvant activities; Log10 (anti-OVA IgG1/anti-OVA IgG2a) (NIH/OlaHsd mice [1]; anionic liposomes): 2.85 ± 0.10; Log10 (anti-OVA IgG1/anti-OVA IgG2a) (NIH/OlaHsd mice [1]; mannosylated liposomes): 2.48 ± 0.19; Log10 (anti-OVA IgG1/anti-OVA IgG2a) (NIH/OlaHsd mice [1]; neutral liposomes): 3.02 ± 0.17 |
| CCOC(=O)CC[C@@H](NC(=O)[C@@H](NC(=O)CNC(=O)/C=C/c1ccc(OC(C)=O)c(OC)c1)C(C)C)C(=O)OCC [Compound 73, Diethyl ((E)-3-(4-Acetoxy-3-methoxyphenyl)acryloyl)glycyl-L-valyl-D-glutamate] | 3.05 ± 0.03 fold increase | 62 ± 27 nM | – | – | – | – | induced small increases in the levels of all four of these cytokines | – |
| CCOC(=O)CC[C@@H](NC(=O)[C@@H](NC(=O)CNC(=O)/C=C/c1ccc(O)c(OC)c1)C(C)C)C(=O)OCC [Compound 1] | – | – | 1.68 ± 0.06 | largely IgG1-based response | – | only marginal adjuvant activity | – | Pyrogenicity [3]: devoid of pyrogenicity |
| CCOC(=O)CC[C@@H](NC(=O)[C@@H](NC(=O)CNC(=O)[C@H]1C[C@@H]1c1ccc(F)c(F)c1)C(C)C)C(=O)OCC [Compound 29a] | 2.46 ± 0.12 fold increase | 66 ± 5 nM | – | – | – | – | – | – |
